# Laboratory results reported in patent US20170333450A1, “COMPOSITIONS AND METHODS FOR TREATING HIV-ASSOCIATED COGNITIVE DYSFUNCTION” (The Regents of the University of California, priority 2014, published 2017).
# Entries after “also recorded” stand apart in the source; their conditions may differ.
# Experiments:
# [1] = test system: heme-oxygenase-1 (HO-1); assay: HO-1 expression in HIV-infected and non-infected monocyte-derived macrophages (MDM) treated with test drug; assay type: cell-based, human; conditions: Bardoxolone 5 nM or 50 nM, FIG. 1, Panel A
# From the text: (§1) FIG. 1 includes three panels identified as panels A, B, and C showing the results of preclinical testing of Bardoxolone in human monocyte-derived macrophages (MDM) and primary rodent neurons. […] “Mock 1” and “Mock 2” correspond to supernatant from untreated, uninfected macrophages run in parallel with treated macrophages. “Vehicle 1” and “Vehicle 2” correspond to supernatant from macrophages that received 0.05% DMSO and no additional drug. […] This effect is seen at Bardoxolone concentrations as low as 5 nM.
# (§2) Monocyte-derived macrophages (MDM), obtained from uninfected donors, were pretreated with Bardoxolone (5 nM or 50 nM), Tempol, 4-hydroxy-2,2,6,6-tetramethylpiperidin-1-oxyl, (500 nM or 5 μM) or control (0.05% DMSO) for 24 hours prior to HIV infection. […] See FIG. 1, Panel A. This enhanced HO-1 expression decreases release of soluble neurotoxins from infected MDM. “Mock 1” and “Mock 2” correspond to supernatant from untreated, uninfected macrophage run in parallel with treated macrophages. “Vehicle 1” and “Vehicle 2” correspond to supernatant from macrophages that received 0.05% DMSO and no additional drug. Final concentration of DMSO in all treated wells is 0.05%.
# [2] = test system: HIV; assay: HIV replication in MDM by reverse transcriptase (RT) activity in the culture supernatant; assay type: cell-based; conditions: FIG. 1, Panel B
# From the text: as §1, §2
# Viral replication was determined via reverse, transcriptase (RT) expression in the cell culture supernatant. The RT assay measured incorporation of ^32P dT into long chain poly rA.
# [3] = test system: primary rodent neurons; assay: Neurotoxicity of MDM culture supernatants on cultured primary rodent neurons (MAP-2 expression); assay type: cell-based; conditions: supernatants of HIV infected MDM on primary rodent neurons, FIG. 1, Panel C
# From the text: as §1
# In addition, pre-treated neurons were exposed to the supernatants. Briefly, MDM culture supernatants are applied to cultured primary rodent neurons to test for MDM culture supernatant neurotoxicity. […] This is an indication of neuronal health.
# [4] = test system: HIV-infected U1 monocytes; assay: Viral expression (p24 gag) in HIV-infected U1 monocytes after LPS stimulation; assay type: cell-based; conditions: 250 nM pre-treatment overnight, LPS activated; FIG. 2
# Method: As such, methods for reducing viral replication may reduce risk for HAND. In another series of experiments, HIV-infected monocytes were exposed to a virus replication stimulus to determine if pretreatment with Bardoxolone inhibited viral replication. […] Here, a comparison of control cells with those pre-treated with either Tempol (1 μM) or Bardoxolone (250 nM) overnight was performed. The cells were then split into two conditions: LPS activated and non-LPS.
smiles,measurement,setting,value
CC1(C)CC[C@]2(C(=O)O)CC[C@]3(C)[C@H](C(=O)C=C4[C@@]5(C)C=C(C#N)C(=O)C(C)(C)[C@@H]5CC[C@]43C)[C@@H]2C1 [Bardoxolone],expression of HO-1 in HIV-infected MDM,[1]; 24 hours before HIV infection and throughout infection,enhanced expression
same,expression of HO-1 in non-infected MDM,[1],enhanced expression
same,concentration at which reduction of HIV replication in MDM is seen,"[2]; lowest concentration tested, RT activity",≤ 5 nM
same,HIV reverse transcriptase (RT) activity in the culture supernatants (HIV replication in MDM),"[2]; pre-treatment 24 hours before HIV infection, 5 nM or 50 nM",reduced levels
same,levels of MAP-2 in the neuron cultures,[3],maintenance or normal levels
same,neurotoxicity of the MDM cell culture supernatants,[3]; compared to vehicle control and to Tempol,dramatically reduced
same,amount of viral expression (p24 gag) following stimulation,[4],reduced; also recorded: decreased
